{"source": "patent US20100008965A1", "about": "“BIOCOMPATIBLE MEDICAL PRODUCTS HAVING ENHANCED ANTI-THROMBOGENIC PROPERTIES” (priority 2008, published 2010)", "key": {"HCAEC [1]": {"tested_on": "HCAEC", "assay": "HCAEC spreading on coated glass slides, static", "type": "cell-based, human", "details": "5 μg/cm^2 coating, two hours, p<0.0001", "procedure": "(§1) 22×25×1 mm glass slides (Electron Microscopy Sciences, Hatfield, Pa.) were washed sequentially in 100% acetone, ethanol and HCl (2:1), and deionized and Milli-Q H2O, followed by autoclave sterilization. Slides were coated with one of the following PBS-solubilized extracellular matrix proteins at 5 μg/cm^2: (a) human type I collagen (Sigma), (b) human plasma fibronectin (Chemicon), or (c) CS-1 peptide (American Peptide Company). All coated slides were dried overnight at room temperature, rinsed with PBS, and blocked with a 0.01% (w/v) heat-inactivated BSA-solution at room temperature for one hour. HCAEC or HUVEC were seeded onto the slides in basal medium at 1×10^4 cells/cm^2 and permitted to attach and spread for two hours at 37° C. Cells were fixed with 4% (w/v) paraformaldehyde and co-stained for fluorescence microscopic analysis using Texas Red®-X phalloidin (Molecular Probes, Eugene, Oreg.) and DAPI (EMB Chemicals, Inc., San Diego, Calif.). Fluorescence micrographs were captured through a 10× objective on a Nikon Diaphot 200 inverted epifluorescence microscope (Nikon, Inc., Melville, N.Y.) using an Olympus DP70 digital camera (Olympus America, Inc., Melville, N.Y.). Image Tool software package version 3.0 (University of Texas Health Science Center, San Antonio, Tex.) was used to quantify endothelial cell surface area."}, "HUVEC [2]": {"tested_on": "HUVEC", "assay": "HUVEC spreading on coated glass slides, static", "type": "cell-based, human", "details": "5 μg/cm^2 coating, two hours, p<0.01", "procedure": "as §1"}, "HCAEC [3]": {"tested_on": "HCAEC", "assay": "alpha-4 integrin function blocking cell binding assay, HCAEC", "type": "cell-based, human", "details": "0.5 μg antibody per 5×10^4 cells, 8 h; CS-1 p<0.05", "procedure": "To verify that HCAEC or HUVEC adhesion to immobilized CS-1 polypeptides is specifically mediated via alpha-4-containing integrin heterodimers, alpha-4 integrin function blocking cell binding assays were performed. RGDS, EILEVPST, and CS-1 polypeptides were immobilized in Immobilizer™ Amino 96-well microplates. Microplate wells were prepared as described above. Trypsinized HCAEC or HUVEC suspensions were manually counted, aliquoted into two groups, and incubated for one hour on ice with one of the following antibodies at a concentration of 0.5 μg antibody per 5×10^4 cells: (a) mouse monoclonal IgG1 anti-human alpha-4-integrin (CD49d, clone P1H4) (Chemicon), or (b) mouse monoclonal IgG1 anti-human isotype-matched control (R&D Systems). Next, 5×10^4 cells suspended in their respective basal medium were added to wells containing immobilized peptide polypeptides and incubated for eight hours at 37° C. and a 5% CO2 atmosphere. Adherent cells were analyzed via crystal violet staining as described previously.\nTo differentiate whether HCAEC and HUVEC adhere to CS-1 peptides via an alpha-4 integrin-specific interaction, HCAEC and HUVEC adhesion assays to CS-1, RGDS, and EILEVPST peptides were performed following one hour endothelial cell incubations with either an alpha-4 integrin function blocking antibody or an IgG isotype-matched control antibody. The EILEVPST peptide served as the negative control cell adhesion peptide. The RGDS peptide served as an additional control. Endothelial cell adhesion to RGDS is primarily mediated by alpha-5-beta-1 integrins. Therefore, alpha-4 integrin function blocking should not have a significant effect on adhesion to RGDS. Thus, specificity of HCAEC and HUVEC binding to CS-1 via alpha-4 integrins could be tested."}, "human platelets": {"tested_on": "human platelets", "assay": "51Cr-labeled platelet adhesion to immobilized ECM proteins under shear flow", "type": "cell-based", "details": "16.5 dyne/cm^2, one hour; non-activated and thrombin-activated; versus CS-1 and glass control", "procedure": "Characterization of human platelet adhesion to immobilized extracellular matrix proteins was performed by subjecting non-activated or thrombin-activated human platelets to a shear stress τ=16.5 dyne/cm^2 for one hour using a peristaltic pump-driven parallel plate fluid flow system. Washed human platelets were isolated as described above, resuspended in platelet washing buffer (PWB), and adjusted to a final concentration of approximately 0.5-1.0×10^9 platelets/ml. The platelet suspensions were incubated for thirty minutes at room temperature with 25 μCi/ml Na2^51CrO4 (GE Healthcare, Piscataway, N.J.). ^51Cr-labeled platelets were centrifuged at 2000×g for three minutes at room temperature and resuspended in 20 ml fresh frozen plasma previously thawed and warmed to 37° C. The ^51Cr-platelet/plasma solution was distributed equally (5 ml) into each of four reservoirs containing an additional 50 ml of 37° C. human plasma. For thrombin-activated platelets, 1 U thrombin (Sigma) per 3 ml platelet suspension was added immediately prior to aliquoting the ^51Cr-platelet/plasma solution into the flow loop reservoirs.\n75×38×1 mm glass microscope slides were coated with ECM proteins as described above. Slides were incubated for one hour at room temperature with a 0.25% (w/v) sterile-filtered BSA solution. […]"}, "HUVEC [4]": {"tested_on": "HUVEC", "assay": "HUVEC retention under unidirectional fluid flow", "type": "cell-based, human", "details": "15 dyne/cm^2, thirty minutes; CS-1 p=0.1, fibronectin p=0.07", "procedure": "In addition to the above, 75×38×1 mm glass microscope slides (Fisher Scientific Research, Pittsburgh, Pa.) were sterilized and coated overnight with human plasma fibronectin or CS-1 peptide at 5 μg/cm^2, or with PBS only. Slides were incubated for one hour at room temperature with a 0.01% (w/v) sterile-filtered BSA solution. HCAEC or HUVEC were seeded in basal medium on slides at 1.85×10^4 cells/cm^2 and permitted to adhere for eight hours under static conditions at 37° C. Fluid flow was performed using parallel plate flow chambers connected to fluid flow loops, as described in Pavalko et al., Fluid shear stress inhibits TNF-alpha-induced apoptosis in osteoblasts: a role for fluid shear stress-induced activation of PI3-kinase and inhibition of caspase-3. J Cell Phys 194, 194, 2002. Briefly, endothelial cell-seeded slides were secured within flow chambers and connected to fluid flow loops. All flows were performed in a 37° C. environment with serum-free culture medium that was continually bathed in a 5% CO2 atmosphere. […] Fluorescence micrographs were captured as described above. […] Nuclei were counted from five equally distributed visual fields per slide and pooled together for each substrate condition. Data was calculated as percent (%) cell retention, where % retention=[(average nuclei count)flow÷(average nuclei count)static]×100."}}}
{"substance": "CS-1: full-length 25 amino acid polypeptide, first 25 amino acid sequence of the fibronectin type IIICS domain (DELPQLVTLPHPNLHGPEILDVPST; Homo sapien)", "values": [{"measurement": "HCAEC spread area relative to the non-ECM-coated control substrate", "setting": "HCAEC [1]", "value": "statistically significant increase"}, {"measurement": "HUVEC spread area relative to the non-ECM-coated control substrate", "setting": "HUVEC [2]", "value": "statistically significant increase"}, {"measurement": "difference in HCAEC adhesion between IgG isotype control and alpha-4 integrin blocking antibody treated cells", "setting": "HCAEC [3]", "value": "A statistical difference was achieved"}, {"measurement": "flowed platelet binding (51Cr), both states of activation", "setting": "human platelets", "value": "lack of significant upregulation in platelet binding"}, {"measurement": "HUVEC percent retention versus control substrate", "setting": "HUVEC [4]", "value": "not statistically distinguishable from the control substrate"}]}
